Data: US9365522B2, “Pyrazole amide derivative” (AMGEN INC., priority 2015, dated 2016)

Biological target: T1, ligand binding domain of human ROR gamma (Homo sapiens, UniProt P51449)
T1 construct: NM_001001523; expressed in transfected cells; host or cells: HEK293T
T1 sequence (P51449 247-497 isoform P51449-2): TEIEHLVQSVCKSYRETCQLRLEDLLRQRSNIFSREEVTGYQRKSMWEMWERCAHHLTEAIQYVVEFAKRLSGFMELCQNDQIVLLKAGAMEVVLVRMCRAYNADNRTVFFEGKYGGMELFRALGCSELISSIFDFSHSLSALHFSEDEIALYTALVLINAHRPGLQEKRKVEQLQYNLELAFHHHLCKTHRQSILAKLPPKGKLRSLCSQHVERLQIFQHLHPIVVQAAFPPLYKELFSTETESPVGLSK
Experiment: ROR gamma reporter gene assay (GAL4-RORγ LBD luciferase, Dual-Glo)
Assay type: cell-based
Conditions: HEK293T cells transfected with pM-ROR gamma, 8 concentrations 3.5 nM to 10.5 μM, 24 h incubation; read-out: result (pIC50, inhibition of RORγ transcriptional activity) (converted)
Procedure, shortened: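 First, HEK293T cells are transfected with the GAL4–RORγ LBD construct, a 5×UAS luciferase reporter and a constitutive renilla control. Next, test compounds are added over eight concentrations (3.5 nM to 10.5 μM). After 24 h at 37 °C, Dual-Glo luminescence is measured and pIC50 fitted.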

| IC50 [pM] | SMILES |
| --- | --- |
| 39800 | CC1(C)[C@@H]2C[C@H](N(C[C@H](O)c3c(F)cncc3Cl)C(=O)c3cnn([C@H]4CC[C@](C)(C(=O)O)CC4)c3C(F)(F)F)C[C@@H]21 [Example 383, trans-4-(4-((2-(3-chloro-5-fluoropyridin-4-yl)-2-hydroxyethyl)((1R,3r,5S)-6,6-dimethylbicyclo[3.1.0]hexan-3-yl)carbamoyl)-5-(trifluoromethyl)-1H-pyrazol-1-yl)-1-methylcyclohexanecarboxylic acid] |
| 15800 | O=C(CN(CC1CC2(CC2)C1)C(=O)c1cnn([C@H]2CC[C@H](C(=O)O)CC2)c1C(F)(F)F)c1c(Cl)cncc1Cl [Example 200, trans-4-(4-((2-(3,5-dichloropyridin-4-yl)-2-oxoethyl)-(spiro[2.3]hexan-5-ylmethyl)carbamoyl)-5-(trifluoromethyl)pyrazol-1-yl)cyclohexane-1-carboxylic acid] |
| 8320 | CC1(C)CCC(N(CC(=O)c2c(Cl)cc(F)cc2Cl)C(=O)c2cnn([C@H]3CC[C@](C)(C(=O)O)CC3)c2C(F)(F)F)CC1 [Example 190, trans-4-(4-((2-(2,6-dichloro-4-fluorophenyl)-2-oxoethyl)-(4,4-dimethylcyclohexyl)carbamoyl)-5-(trifluoromethyl)pyrazol-1-yl)-1-methylcyclohexane-1-carboxylic acid] |
| 69200 | Cc1cncc(Cl)c1C(=O)CN(C(=O)c1cnn([C@H]2CC[C@](C)(C(=O)O)CC2)c1C(F)(F)F)[C@H]1C[C@@H]2[C@H](C1)C2(C)C [Example 387, trans-4-(4-((2-(3-chloro-5-methylpyridin-4-yl)-2-oxoethyl)((1R,3r,5S)-6,6-dimethylbicyclo[3.1.0]hexan-3-yl)carbamoyl)-5-{trifluoromethyl)-1H-pyrazol-1-yl)-1-methylcyclohexanecarboxylic acid] |
| > 1e+07 | O=C(CN(Cc1cc(F)cc(F)c1)C(=O)c1cnn(C2CCC(C(=O)O)CC2)c1C(F)(F)F)c1c(O)cccc1O (stereo not shown) [Example 9, 4-(4-((3,5-difluorobenzyl)(2-(2,6-dihydroxyphenyl)-2-oxoethyl)carbamoyl)-5-(trifluoromethyl)-1H-pyrazol-1-yl)cyclohexanecarboxylic acid] |
| 191000 | CC1(C)[C@@H]2C[C@H](N(C[C@H](O)c3ccccc3Cl)C(=O)c3cnn([C@H]4CC[C@](C)(C(=O)O)CC4)c3C(F)(F)F)C[C@@H]21 [Example 368, trans-4-(4-((2-(2-chlorophenyl)-2-hydroxyethyl)((1R,3r,5S)-6,6-dimethylbicyclo[3.1.0]hexan-3-yl)carbamoyl)-5-(trifluoromethyl)-1H-pyrazol-1-yl)-1-methylcyclohexanecarboxylic acid] |
| 16200 | C[C@]1(C(=O)O)CC[C@H](n2ncc(C(=O)N(CC(=O)c3c(Cl)cccc3C(F)(F)F)CC3(F)CCCC3)c2C(F)(F)F)CC1 [Example 270, trans-4-(4-((2-(2-chloro-6-(trifluoromethyl)phenyl)-2-oxoethyl)-((1-fluorocyclopentyl)methyl)carbamoyl)-5-(trifluoromethyl)pyrazol-1-yl)-1-methylcyclohexane-1-carboxylic acid] |
| 6920 | CC12CCC(CN(CC(=O)c3c(Cl)cc(F)cc3Cl)C(=O)c3cnn([C@H]4CC[C@](C)(C(=O)O)CC4)c3C(F)(F)F)(CC1)O2 [Example 244, trans-4-(4-((2-(2,6-dichloro-4-fluorophenyl)-2-oxoethyl)-((1-methyl-7-oxabicyclo[2.2.1]heptan-4-yl)methyl)carbamoyl)-5-(trifluoromethyl)pyrazol-1-yl)-1-methylcyclohexane-1-carboxylic acid] |
| > 1e+07 | Cc1cc(=O)[nH]c(C)c1C(=O)CN(Cc1cc(F)cc(F)c1)C(=O)c1cnn([C@H]2CC[C@H](C(=O)O)CC2)c1C(F)(F)F [Example 122, trans-4-(4-((3,5-difluorophenyl)methyl-(2-(2,4-dimethyl-6-oxo-1H-pyridin-3-yl)-2-oxoethyl)carbamoyl)-5-(trifluoromethyl)pyrazol-1-yl)cyclohexane-1-carboxylic acid] |
| 5.13e+06 | CC(C)(C)O[C@H]1C[C@@H](N(CC(=O)c2c(Cl)cncc2Cl)C(=O)c2cnn([C@H]3CC[C@H](C(=O)O)CC3)c2C(F)(F)F)C1 [Example 155, trans-4-(4-((2-(3,5-dichloropyridin-4-yl)-2-oxoethyl)-(3-((2-methylpropan-2-yl)oxy)cyclobutyl)carbamoyl)-5-(trifluoromethyl)pyrazol-1-yl)cyclohexane-1-carboxylic acid] |
| 8.71e+06 | N#C[C@]1(C(=O)O)CC[C@H](n2ncc(C(=O)N(CC(=O)c3c(Cl)cncc3Cl)Cc3ccc(F)cc3)c2C(F)(F)F)CC1 [Example 129, trans-4-(4-((2-(3,5-dichloropyridin-4-yl)-2-oxoethyl)-((4-fluorophenyl)methyl)carbamoyl)-5-(trifluoromethyl)pyrazol-1-yl)-1-cyanocyclohexane-1-carboxylic acid] |
| 2.82e+06 | CC1(C)[C@@H]2C[C@H](N(CC(O)c3ccccn3)C(=O)c3cnn([C@H]4CC[C@](C)(C(=O)O)CC4)c3C(F)(F)F)C[C@@H]21 (stereo partly shown) [Example 401] |
| 66100 | CC(C)(C)[C@H]1C[C@H](N(CC(=O)c2c(Cl)cncc2Cl)C(=O)c2cnn([C@H]3CC[C@H](C(=O)O)CC3)c2C(F)(F)F)C1 [Example 132, trans-4-(4-((3-tert-butylcyclobutyl)-(2-(3,5-dichloropyridin-4-yl)-2-oxoethyl)carbamoyl)-5-(trifluoromethyl)pyrazol-1-yl)cyclohexane-1-carboxylic acid] |
| > 1e+07 | O=C(CN(Cc1cc(F)cc(F)c1)C(=O)c1cnn([C@H]2CC[C@H](C(=O)O)CC2)c1C(F)(F)F)c1c(Cl)cc(O)cc1Cl [Example 70, trans-4-(4-((2-(2,6-dichloro-4-hydroxyphenyl)-2-oxoethyl)(3,5-difluorobenzyl)carbarnoyl)-5-(trifluoromethyl)-1H-pyrazol-1-yl)cyclohexanecarboxylic acid] |
| 38000 | Cc1cc(C)c(C(=O)CN(C(=O)c2cnn([C@H]3CC[C@](C)(C(=O)O)CC3)c2C(F)(F)F)C2CCC(C)(C)CC2)c(Cl)c1 [Example 279, trans-4-(4-((2-(2-chloro-4,6-dimethylphenyl)-2-oxoethyl)-(4,4-dimethylcyclohexyl)carbamoyl)-5-(trifluoromethyl)pyrazol-1-yl)-1-methylcyclohexane-1-carboxylic acid] |
| 24000 | Cc1cc(Cl)c(C(=O)CN(CC2(F)CCCC2)C(=O)c2cnn(C34CCC(C(=O)O)(CC3)CC4)c2C(F)(F)F)c(Cl)c1 [Example 300, 4-(4-((2-(2,6-dichloro-4-methyIphenyl)-2-oxoethyl)-((1-fluorocyclopentyl)methyl)carbamoyl)-5-(trifluoromethyl)pyrazol-1-yl)bicyclo[2.2.2]octane-1-carboxylic acid] |
| 1.48e+06 | O=C(CN(Cc1cc(F)cc(F)c1)C(=O)c1cnn([C@H]2CC[C@H](O)CC2)c1C(F)(F)F)c1c(Cl)cncc1Cl [Example 85, N-(2-(3,5-dichloropyridin-4-yl)-2-oxoethyl)-N-(3,5-difluorobenzyl)-1-(trans-4-hydroxycyclohexyl)-5-(trifluoromethyl)-1H-pyrazole-4-carboxamide] |
| 20900 | O=C(CN(CC1(F)CCCC1)C(=O)c1cnn(C23CCC(C(=O)O)(CC2)CC3)c1C(F)(F)F)c1c(Cl)cncc1Cl [Example 299, 4-(4-((2-(3,5-dichloropyridin-4-yl)-2-oxoethyl)-((1-fluorocyclopentyl)methyl)carbamoyl)-5-(trifluoromethyl)pyrazol-1-yl)bicyclo[2.2.2]octane-1-carboxylic acid] |
| 11700 | O=C(CN(Cc1cc(F)cc(F)c1)C(=O)c1cnn([C@H]2CC[C@H](C(=O)O)CC2)c1C(F)(F)F)c1c(Cl)cc(C(F)F)cc1Cl [Example 18, trans-4-(4-((2-(2,6-dichloro-4-(difluoromethyl)phenyl)-2-oxoethyl)(3,5-difluorobenzyl)carbamoyl)-5-(trifluoromethyl)-1H-pyrazol-1-yl)cyclohexanecarboxylic acid] |
| 195000 | O=C(CN(Cc1ccc(F)cc1)C(=O)c1cnn([C@H]2CC[C@H](C(=O)O)CC2)c1CC(F)(F)F)c1c(Cl)cncc1Cl [Example 228, trans-4-(4-((2-(3,5-dichloropyridin-4-yl)-2-oxoethyl)-((4-fluorophenyl)methyl)carbamoyl)-5-(2,2,2-trifluoroethyl)pyrazol-1-yl)cyclohexane-1-carboxylic acid] |
| 302000 | CC1(C)CC(N(CC(=O)c2c(Cl)cncc2Cl)C(=O)c2cnn([C@H]3CC[C@H](C(=O)O)CC3)c2C(F)(F)F)CO1 (stereo partly drawn) [Example 208, trans-4-(4-((2-(3,5-dichloropyridin-4-yl)-2-oxoethyl)-(5,5-dimethyloxolan-3-yl)carbamoyl)-5-(trifluoromethyl)pyrazol-1-yl)cyclohexane-1-carboxylic acid] |
| 1.2e+06 | CCC(CC)N(CC(=O)c1c(Cl)cncc1Cl)C(=O)c1cnn([C@H]2CC[C@](C)(C(=O)O)CC2)c1C(F)(F)F [Example 287, trans-4-(4-((2-(3,5-dichloropyridin-4-yl)-2-oxoethyl)-pentan-3-ylcarbamoyl)-5-(trifluoromethyl)pyrazol-1-yl)-1-methylcyclohexane-1-carboxylic acid] |
